Experimental data from patent publication US10662210B2, “Compositions and methods comprising osmium for the treatment of cancers” (Massachusetts Institute of Technology, priority 2014, dated 2020).

Tests used:
pUC19 plasmid DNA = assay: Agarose gel electrophoresis of plasmid DNA; format: biochemical; details: 24 h, 37° C.
Description: The osmium compounds were hypothesized to induce cell death through DNA interactions. Therefore, the interaction of 2 or 4 with pUC19 plasmid DNA was investigated using gel electrophoresis; the results of which are as shown in FIG. 6. As the concentration of 2 increased, there was a clear increase in the amount of nicked circular, and a concomitant decrease in the amount of supercoiled, plasmid DNA. At concentrations >250 μM, the bands in the gel smeared and then disappeared. […] The DNA binding kinetics of 2 and 4 were studied by measuring the amount of osmium bound to precipitated ct-DNA; the results of which are as shown in FIG. 7. The half-life of this reaction for 2 was 2 hours.
Plasmid DNA (pUC19) was kindly donated. The DNA binding ability of the osmium complexes was determined by monitoring the conversion of supercoiled plasmid DNA (form I) to nicked circular DNA (form II) using agarose gel electrophoresis. To probe the effect of Os-complex concentration, solutions containing […] of DNA and 0, 10, 20, 50, 100, 250, 500, and 1000 μM of the osmium complexes with a total reaction volume of 15 μL were incubated at 37° C. for 24 h. […] The DNA bands were analysed under UV light using a Flor-S reader (BioRad).

[1] = system: genomic DNA from A2780 cells; assay: Intracellular DNA osmium content; format: cell-based, human; details: 10 μM, 12 h
Description: To gain further insight into the modes of action of 2 and 4, immunoblotting analyses were conducted to monitor changes in expression of biomarkers related to the DNA damage pathway (FIG. 8). […] This difference could be related to steric effects imposed by the phenyl groups in 4.
To measure the amount osmium on genomic DNA, ca. 1 million A2780 cells were treated with 10 μM of the complexes at 37° C. for 12 h. Then the media were removed, the cells were washed with PBS solution (1 mL×3), harvested, and centrifuged. The cellular pellet was suspended in DNAzol (1 mL, genomic DNA isolation reagent, MRC). The DNA was precipitated with ethanol (0.5 mL), washed with 75% ethanol (0.75 mL×3), and re-dissolved in 200 μL of 8 mM NaOH. The DNA concentration was determined by UV-visible spectroscopy, and osmium was quantified by GFAAS. The reported values are the average of at least three independent experiments with the error reported as the standard deviation.

[2] = system: p53, p21 and BAX in A2780 cells; assay: Immunoblotting analysis, p53 pathway; format: cell-based, human; details: for p53 expression: vs untreated cells
Description: Having established the intracellular targets of 2 and 4, the role of p53, a cell cycle and apoptosis regulator, in the cellular responses evoked was investigated. […] Therefore, p53 played a fundamental role in coordinating the cellular response to 2-induced DNA damage. […] (FIG. 13). […] To relate p53 to potency, cytotoxicity studies were conducted in the presence of p53 inhibitors pifithrin-α and pifithrin-μ. (both 10 μM). […] The IC50 values of compound 2 in the absence and presence of p53 inhibitor pifithrin-μ after 72 hours incubation was about 2 μM and about 30 μM, respectively.
A2780 cells (5×10^5 cells) were incubated with the osmium complexes (concentrations, μM) for 72 h at 37° C. Cells were washed with PBS, scraped into SDS-PAGE loading buffer (64 mM Tris-HCl (pH6.8)/9.6% glycerol/2% SDS/5% β-mercaptoethanol/0.01% Bromophenol Blue), and incubated at 95° C. for 10 min. Whole cell lysates were resolved by 4-20% sodium dodecylsulphate polyacylamide gel electrophoresis (SDS-PAGE; 200 V for 25 min) followed by electro transfer to polyvinylidene difluoride membrane, PVDF (350 mA for 1 h). Membranes were blocked in 5% (w/v) non-fat milk in PBST (PBS/0.1% Tween 20) and incubated with the appropriate primary antibodies (Cell Signalling Technology and Santa Cruz). After incubation with horseradish peroxidase-conjugated secondary antibodies (Cell Signalling Technology), immune complexes were detected with the ECL detection reagent (BioRad) and analyzed using an Alpha Innotech ChemiImager™ 5500 fitted with a chemiluminescence filter.

[3] = system: cleaved caspase 3, 7, 9 and PARP in A2780 cells; assay: Immunoblotting analysis, apoptosis pathway; format: cell-based, human; details: 72 h
Description: To have a more complete understanding of the cellular response induced by 2 or 4, their mode of cell killing was evaluated. Many clinically approved cancer drugs exert their cytotoxic effects through apoptosis, and so the features related to this pathway were monitored. Apoptotic cells underwent morphological changes that lead to cell membrane disorientation. […] Cells can undergo other forms of cell death such as necrosis and autophagy. To probe these pathways, cytotoxicity assays were carried out in the presence of […], chloroquine, and IM-54, respectively. Because both chloroquine and IM-54 had little effect on the potency of either of the osmium complexes, necrosis and autophagy were ruled out as possible death pathways. […] On the other hand, 4 initiated ER stress, culminating in p53 independent, caspase directed apoptosis (FIG. 4).
A2780 cells (5×10^5 cells) were incubated with the osmium complexes (concentrations, μM) for 72 h at 37° C. […] After incubation with horseradish peroxidase-conjugated secondary antibodies (Cell Signalling Technology), immune complexes were detected with the ECL detection reagent (BioRad) and analyzed using an Alpha Innotech ChemiImager™ 5500 fitted with a chemiluminescence filter.

Row | Compound | effect on pUC19 DNA in gel electrophoresis (pUC19 plasmid DNA) | Os/DNA ratio on genomic DNA [1] | p21 and BAX expression [2] | p53 expression [2] | expression of apoptosis positive proteins [3]
1 | [N]#[Os]1([Cl])([Cl])([Cl])[N]2C=CC(c3ccccc3)=c3ccc4c(c32)[N]1C=CC=4c1ccccc1 [Complex 4, OsN(4,7-diphenyl-1,10-phenanthroline)Cl3] | no visible effect | about 14 pmol/μg | remained fairly constant | did not increase markedly | expressed apoptosis positive proteins, cleaved caspase 3, 7, 9, and poly ADP ribose polymerase (PARP)
2 | [N]#[Os]1([Cl])([Cl])([Cl])[N]2C=CC=c3ccc4c(c32)[N]1C=CC=4 [Complex 2, OsN(1,10-phenanthroline)Cl3] | induced conformational changes and degradation of circular DNA | about 21 pmol/μg | dose-dependent increase | higher p53 expression | expressed apoptosis positive proteins, cleaved caspase 3, 7, 9, and poly ADP ribose polymerase (PARP)
